From PubChem BioAssay (NCI)
Several values for one entry are separate records, joined by “and”; a condition that tells them apart may be missing. Equal values may be shown once.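 How tested: cells in 96-well plates exposed to compound for 48 hours at five concentrations. Here, GI50 denotes the concentration required for 50% inhibition of growth. At the TGI there is no net growth.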

Key:
Assay in all cases: NCI-60 cell line screen, 48 h
[1] = tested on: K-562 leukemia
[2] = tested on: SF-539 CNS
[3] = tested on: LOX IMVI melanoma
[4] = tested on: MDA-N
[5] = tested on: MDA-MB-435
[6] = tested on: SK-MEL-2 melanoma
[7] = tested on: RPMI-8226 leukemia
[8] = tested on: 786-0 renal
[9] = tested on: MCF7 breast
[10] = tested on: HOP-62 NSCLC
[11] = tested on: OVCAR-8 ovarian

| SMILES | TGI [1] | TGI [2] | TGI [3] | TGI [4] [µM] | TGI [5] [µM] | TGI [6] | TGI [7] | TGI [8] [µM] | TGI [9] | TGI [10] | TGI [11] | GI50 [1] [µM] | GI50 [2] [µM] | GI50 [3] [µM] | GI50 [6] [µM] | GI50 [11] | GI50 [7] [µM] | GI50 [9] [µM] | GI50 [10] [µM] |
| --- | --- | --- | --- | --- | --- | --- | --- | --- | --- | --- | --- | --- | --- | --- | --- | --- | --- | --- | --- |
| Cc1oc(N)c(S(=O)(=O)/C(C#N)=C/c2ccccc2[N+](=O)[O-])c1C | 60.4 µM | 61.4 µM | 28.5 µM | 46.9 | > 100 | > 100 µM | 75.2 µM | 92.6 | > 100 µM | > 100 µM | – | – | – | – | – | – | – | – | – |
| COc1ccc(-c2csc3c2[N+]2(C)C=CC=C2C3N2CCCC2)cc1 (stereo not given) | > 100 µM | 57.7 µM | > 100 µM | > 100 | 59.5 | 31.1 µM | > 100 µM | > 100 | > 100 µM | > 100 µM | > 100 µM | – | – | – | – | – | – | – | – |
| C=CCN1C(=O)C[C@H](Cc2ccccc2)NC(=O)C[C@H](Cc2ccccc2)N(CC=C)C(=O)C[C@H](Cc2ccccc2)NC(=O)C[C@@H]1Cc1ccccc1 | > 100 µM | > 100 µM | > 100 µM | > 100 | > 100 | > 100 µM | 9.66 µM | > 100 | > 100 µM | > 100 µM | > 100 µM | – | – | – | – | – | – | – | – |
| Oc1ccc(Nc2nc(Cl)c3[nH]cnc3n2)cc1 | > 100 µM | > 100 µM | > 100 µM | > 100 | > 100 | 87.3 µM | > 100 µM | > 100 | > 100 µM | > 100 µM | > 100 µM | – | – | – | – | – | – | – | – |
| C[C@H](NC(=O)C(C)(Cc1ccc(O)cn1)NC(=O)c1ccccc1)c1ccccc1 (stereo not given in full) | > 100 µM | > 100 µM | > 100 µM | > 100 | > 100 | > 100 µM | > 100 µM | > 100 | > 100 µM | > 100 µM | > 100 µM | – | – | – | – | – | – | – | – |
| COC(=O)CCCc1nc2ccccc2nc1N=Nc1ccccc1 | 58.2 µM | > 100 µM | 31.3 µM | > 100 | > 100 | > 100 µM | 98.8 µM | > 100 | > 100 µM | > 100 µM | 58.5 µM | – | – | – | – | – | – | – | – |
| CC(C)=CC(=O)OC1C2C(C)=CC(=O)C(O)C2(C)C2C3(O)OCC24C(CC(=O)OC14)C(C)C3O (stereo not given) | 0.0775 µM and 0.237 µM | 0.0132 µM and 0.0415 µM | – | 0.00481 | 0.0103 | 0.0723 µM and 0.0279 µM and 0.0695 µM | 0.028 µM and 0.0291 µM | 0.0834 | 0.00664 µM | 0.0504 µM and 0.0103 µM and 0.0948 µM | 0.125 µM and 0.0247 µM and 0.0683 µM | 0.02 | 0.02 | 0.0298 | 0.025 | 0.0251 µM | 0.02 | 0.00159 | 0.0315 |
| Cc1cccc(NC(=S)Nc2cccc(Cl)c2)n1 | > 100 µM | > 100 µM | > 100 µM | > 100 | > 100 | > 100 µM | > 100 µM | > 100 | > 100 µM | > 100 µM | > 100 µM | – | – | – | – | – | – | – | – |
| CSCCC(NC(=O)C(Cc1c[nH]c2ccccc12)NC(=O)CCNC(=O)OC(C)(C)C)C(=O)NC(CC(=O)O)C(=O)NC(Cc1ccccc1)C(N)=O (stereo not given) | > 50 µM | > 50 µM | > 50 µM | > 50 | > 50 | > 50 µM | > 50 µM | > 50 | > 50 µM | > 50 µM | – | – | – | – | – | – | – | – | – |
| CC(=O)N1CCOC12N=NC(C)(C)O2 (stereo not given) | > 100 µM | > 100 µM | > 100 µM | > 100 | > 100 | > 100 µM | > 100 µM | > 100 | > 100 µM | > 100 µM | > 100 µM | – | – | – | – | – | – | – | – |
| O=[N+]([O-])/C(Cl)=C(\NCCO)C(Cl)=C(Cl)Cl | 39.7 µM | > 100 µM | > 100 µM | > 96.3 | > 100 | > 100 µM | 40.5 µM | 73.8 | > 100 µM | > 100 µM | > 92.5 µM | – | – | – | – | – | – | – | – |
| C[C@@H]([C@H]1CC[C@@]2(C)[C@@H]3CC[C@@H]4C(=CC3=CC[C@]12C)CC[C@H](N(C)C)C4(C)C)N(C)C | > 100 µM | > 100 µM | > 100 µM | > 100 | > 100 | – | > 100 µM | > 100 | > 100 µM | > 100 µM | > 100 µM | – | – | – | – | – | – | – | – |
| COC1(C)CCC(OS(C)(=O)=O)CO1 (stereo not given) | > 100 µM | > 100 µM | > 100 µM | > 100 | > 100 | > 100 µM | > 100 µM | > 100 | > 100 µM | > 100 µM | > 100 µM | – | – | – | – | – | – | – | – |
| C/C(CC(O)(C(F)(F)F)C(F)(F)F)=N\O | > 10 µM | > 10 µM | > 10 µM | > 10 | > 10 | > 10 µM | > 10 µM | > 10 | > 10 µM | > 10 µM | > 10 µM | – | – | – | – | – | – | – | – |
| CCN(CC)CC[n+]1ccc2c(C)c3[nH]c4ccccc4c3c(C)c2c1 | 5.43 µM and 3.49 µM and 2.19 µM | 1.66 µM and 5.78 µM and 2.12 µM | 2.13 µM and 3.73 µM and 16.3 µM | 1.99 | 2.14 | 1.56 µM and 3.43 µM and 1.29 µM | 4.87 µM and 0.536 µM and 2.95 µM | 5.96 | 7.36 µM and 5.5 µM and 2.47 µM | 3.46 µM and 7.99 µM and 4.74 µM | 4.97 µM and 5.17 µM and 2.25 µM | 0.1 | 0.921 | – | 1.4 | 0.392 µM and 0.59 µM and 0.195 µM | < 0.0471 | 0.323 | – |
